Like-named read-outs stand apart in the source and are kept apart here. Numbered stars: 1 amine (or outer) side, 2 acyl side, 3 side chain; on linkers, the order of the positions; unused ones are H or OH. Bridge positions count the residues as written; N and C are the ends. Square brackets hold non-standard residues; d marks the D form. Peptide text beside a SMILES is read from it. hCys = N[C@@H](CCS)C(=O)O; Orn = NCCC[C@H](N)C(=O)O; X1 = O=C(C[*:1])[*:2]; X2 = O=C(C[*:2])[*:1]
Legend:
human integrin αvβ5 = human integrin αvβ5 (Homo sapiens, UniProt P06756+P18084); test: Evaluation of integrin binding property (surface plasmon resonance, Biacore 3000, immobilized cyclic peptide)
In short: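 Cyclic peptides amine-coupled to a CM5 chip via EDC/NHS, with a blank reference channel; integrin injected 10 min at 25 °C at 30, 100, 300 and 1,000 nM in HEPES pH 7.4, 150 mM NaCl, 5 mM MgCl2, then 30 min buffer flow, EDTA regeneration. Kd from reference-subtracted responses, graded by category.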

[1] = Evaluation of molecule stability (alkali treatment, LC/MS residual rate); assay type: physicochemical; details: 500 μM peptide plus equivalent of 1 M sodium hydroxide, 15° C., 20 minutes, LC/MS peak area
In short: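 Cyclic peptide at 500 μM in water treated with an equivalent of 1 M NaOH for 20 minutes at 15° C. Residual rate is the total LC/MS peak area after treatment relative to that before treatment, set as 100%. Analysis on a C18 column at 45° C with ammonium formate pH 3 eluents and ESI detection.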

[2] = peptide immobilized on CM5 sensor chip, human integrin αvβ5 30-1,000 nM, 25° C., HEPES buffer with 5 mM magnesium chloride, read-out: Integrin binding property (dissociation constant)

human integrin αvβ5, sequence (P06756 31-889 limits assumed): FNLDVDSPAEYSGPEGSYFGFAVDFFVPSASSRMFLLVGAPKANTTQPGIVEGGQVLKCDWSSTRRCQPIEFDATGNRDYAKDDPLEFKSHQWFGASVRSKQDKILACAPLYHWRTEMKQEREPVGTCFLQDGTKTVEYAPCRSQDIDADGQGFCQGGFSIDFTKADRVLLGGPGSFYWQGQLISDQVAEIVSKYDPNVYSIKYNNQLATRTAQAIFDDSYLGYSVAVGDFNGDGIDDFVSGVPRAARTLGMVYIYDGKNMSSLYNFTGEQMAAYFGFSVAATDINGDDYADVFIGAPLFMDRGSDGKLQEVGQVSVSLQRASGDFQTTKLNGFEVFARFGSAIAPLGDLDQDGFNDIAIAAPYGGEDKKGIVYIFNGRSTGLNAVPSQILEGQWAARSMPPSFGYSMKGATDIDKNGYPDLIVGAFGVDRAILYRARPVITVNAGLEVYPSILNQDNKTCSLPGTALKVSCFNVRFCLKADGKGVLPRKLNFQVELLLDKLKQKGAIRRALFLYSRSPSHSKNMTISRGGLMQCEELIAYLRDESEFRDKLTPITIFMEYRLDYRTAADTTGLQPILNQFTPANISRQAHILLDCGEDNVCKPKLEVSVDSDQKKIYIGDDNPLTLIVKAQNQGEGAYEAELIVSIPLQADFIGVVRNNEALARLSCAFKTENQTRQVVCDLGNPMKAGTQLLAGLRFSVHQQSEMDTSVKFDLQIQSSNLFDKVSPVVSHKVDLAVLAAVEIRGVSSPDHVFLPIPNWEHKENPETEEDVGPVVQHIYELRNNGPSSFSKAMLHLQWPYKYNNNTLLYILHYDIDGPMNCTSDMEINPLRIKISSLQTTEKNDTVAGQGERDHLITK
human integrin αvβ5, sequence (P06756 891-1048 partner limits assumed): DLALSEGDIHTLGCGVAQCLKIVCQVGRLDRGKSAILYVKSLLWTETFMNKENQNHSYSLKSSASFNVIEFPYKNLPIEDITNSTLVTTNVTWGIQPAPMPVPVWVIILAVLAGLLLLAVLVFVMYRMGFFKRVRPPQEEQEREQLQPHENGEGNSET
human integrin αvβ5, sequence (P18084 24-799): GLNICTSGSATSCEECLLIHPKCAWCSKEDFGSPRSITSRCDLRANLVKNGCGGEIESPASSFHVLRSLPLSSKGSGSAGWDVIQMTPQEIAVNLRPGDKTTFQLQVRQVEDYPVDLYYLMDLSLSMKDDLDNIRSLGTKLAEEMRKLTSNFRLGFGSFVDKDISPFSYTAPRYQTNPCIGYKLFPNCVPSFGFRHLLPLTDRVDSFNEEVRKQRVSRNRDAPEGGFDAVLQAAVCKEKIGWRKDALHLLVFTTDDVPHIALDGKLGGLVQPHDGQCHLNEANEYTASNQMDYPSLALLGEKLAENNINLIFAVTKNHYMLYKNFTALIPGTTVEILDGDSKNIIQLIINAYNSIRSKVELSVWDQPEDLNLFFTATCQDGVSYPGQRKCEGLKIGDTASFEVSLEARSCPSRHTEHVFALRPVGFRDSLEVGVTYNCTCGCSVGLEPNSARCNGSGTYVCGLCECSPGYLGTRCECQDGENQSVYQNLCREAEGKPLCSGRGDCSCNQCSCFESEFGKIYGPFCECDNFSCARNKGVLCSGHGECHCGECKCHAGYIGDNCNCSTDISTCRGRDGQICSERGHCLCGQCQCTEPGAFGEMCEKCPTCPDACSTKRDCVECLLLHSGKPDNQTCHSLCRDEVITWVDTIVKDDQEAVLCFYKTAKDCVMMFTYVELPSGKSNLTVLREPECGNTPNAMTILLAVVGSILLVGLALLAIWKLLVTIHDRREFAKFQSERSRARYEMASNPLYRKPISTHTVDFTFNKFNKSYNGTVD

SMILES	Kd (human integrin αvβ5; [2]) [µM]	Molecule stability (cyclic peptide residual rate) [1]	Kd (human integrin αvβ5) [µM]
C[C@H](N)C(=O)N[C@H]1CCSCC(=O)NCCCC[C@@H](C(=O)N[C@@H](CCCCN)C(=O)N[C@@H](CCCCN)C(=O)N[C@@H](CCCCN)C(=O)O)NC(=O)[C@H](Cc2ccccc2)NC(=O)[C@@H]2CCCCNC(=O)CSCC[C@H](NC1=O)C(=O)N[C@@H](CCCNC(=N)N)C(=O)NCC(=O)N[C@@H](CC(=O)O)C(=O)N2 [Cyclic peptide 36] (H-A[hCys][hCys]RGDKFKKKK-OH; linker 2-9, 3-7 via X1)	0.05 to 0.1	A (The residual rate of the cyclic peptide is 70% or more.)	
C[C@H](NC(=O)[C@@H]1CCCCNC(=O)CSCC[C@H](NC(=O)[C@H](CCCCN)NC(=O)[C@H](CCCCN)NC(=O)[C@@H](N)CCCCN)C(=O)N[C@H]2CCSCC(=O)NCCCC[C@H](NC(=O)[C@H](CC(=O)O)NC(=O)CNC(=O)[C@H](CCCNC(=N)N)NC2=O)C(=O)N[C@@H](Cc2ccccc2)C(=O)N1)C(=O)O [Cyclic peptide 37] (H-KKK[hCys][hCys]RGDKFKA-OH; linker 4-11, 5-9 via X1)	0.05 to 0.1	A (The residual rate of the cyclic peptide is 70% or more.)	
CC(C)[C@@H]1NC(=O)CSCC[C@@H](C(=O)N[C@@H](CCCCN)C(=O)N[C@@H](CCCCN)C(=O)N[C@@H](CCCCN)C(=O)O)NC(=O)[C@H](Cc2ccccc2)NC(=O)[C@@H]2CCSCC(=O)NCCC[C@H](NC1=O)C(=O)N[C@@H](CCCNC(=N)N)C(=O)NCC(=O)N[C@@H](CC(=O)O)C(=O)N2 [Cyclic peptide 38] ({CH2CO}-V[Orn]RGD[hCys]F[hCys]KKK-OH; linker 2-6 via X2; thioether N-8)	< 0.05	A (The residual rate of the cyclic peptide is 70% or more.)	
N=C(N)NCCC[C@@H]1NC(=O)[C@@H]2CCCNC(=O)CSCC[C@H](NC(=O)[C@H](CC(=O)O)NC(=O)CNC1=O)C(=O)N[C@@H](Cc1ccccc1)C(=O)N[C@H](C(=O)N[C@@H](CCCCN)C(=O)N[C@@H](CCCCN)C(=O)N[C@@H](CCCCN)C(=O)O)CCSCC(=O)N[C@@H](CC(=O)O)C(=O)N2 [Cyclic peptide 39] ({CH2CO}-D[Orn]RGD[hCys]F[hCys]KKK-OH; linker 2-6 via X2; thioether N-8)	< 0.05	A (The residual rate of the cyclic peptide is 70% or more.)	
N=C(N)NCCC[C@@H]1NC(=O)[C@@H]2CCCNC(=O)CSCC[C@H](NC(=O)[C@H](CC(=O)O)NC(=O)CNC1=O)C(=O)N[C@@H](Cc1ccccc1)C(=O)N[C@H](C(=O)N[C@@H](CCCCN)C(=O)N[C@@H](CCCCN)C(=O)N[C@@H](CCCCN)C(=O)O)CCSCC(=O)N[C@@H](CCC(=O)O)C(=O)N2 [Cyclic peptide 40] ({CH2CO}-E[Orn]RGD[hCys]F[hCys]KKK-OH; linker 2-6 via X2; thioether N-8)	< 0.05	A (The residual rate of the cyclic peptide is 70% or more.)	
CC(C)[C@@H]1NC(=O)CSCC[C@@H](C(=O)N[C@@H](CCCCN)C(=O)N[C@@H](CCCCN)C(=O)N[C@@H](CCCCN)C(=O)O)NC(=O)[C@H](Cc2ccccc2)NC(=O)[C@@H]2CCCNC(=O)CSCC[C@H](NC1=O)C(=O)N[C@@H](CCCNC(=N)N)C(=O)NCC(=O)N[C@@H](CC(=O)O)C(=O)N2 [Cyclic peptide 41] ({CH2CO}-V[hCys]RGD[Orn]F[hCys]KKK-OH; linker 2-6 via X1; thioether N-8)	0.05 to 0.1	A (The residual rate of the cyclic peptide is 70% or more.)	
N=C(N)NCCC[C@@H]1NC(=O)[C@@H]2CCSCC(=O)NCCC[C@H](NC(=O)[C@H](CC(=O)O)NC(=O)CNC1=O)C(=O)N[C@@H](Cc1ccccc1)C(=O)N[C@H](C(=O)N[C@@H](CCCCN)C(=O)N[C@@H](CCCCN)C(=O)N[C@@H](CCCCN)C(=O)O)CCSCC(=O)N[C@@H](CC(=O)O)C(=O)N2 [Cyclic peptide 42] ({CH2CO}-D[hCys]RGD[Orn]F[hCys]KKK-OH; linker 2-6 via X1; thioether N-8)	< 0.05	A (The residual rate of the cyclic peptide is 70% or more.)	
N=C(N)NCCC[C@@H]1NC(=O)[C@@H]2CCSCC(=O)NCCC[C@H](NC(=O)[C@H](CC(=O)O)NC(=O)CNC1=O)C(=O)N[C@@H](Cc1ccccc1)C(=O)N[C@H](C(=O)N[C@@H](CCCCN)C(=O)N[C@@H](CCCCN)C(=O)N[C@@H](CCCCN)C(=O)O)CCSCC(=O)N[C@@H](CCC(=O)O)C(=O)N2 [Cyclic peptide 43] ({CH2CO}-E[hCys]RGD[Orn]F[hCys]KKK-OH; linker 2-6 via X1; thioether N-8)	< 0.05	A (The residual rate of the cyclic peptide is 70% or more.)	
CC(C)[C@@H]1NC(=O)CSCC[C@@H](C(=O)N[C@@H](C)C(=O)N[C@@H](CCCCN)C(=O)N[C@@H](CCCCN)C(=O)N[C@@H](CCCCN)C(=O)O)NC(=O)[C@H](Cc2ccccc2)NC(=O)[C@@H]2CCCCNC(=O)CSCC[C@H](NC1=O)C(=O)N[C@@H](CCCNC(=N)N)C(=O)NCC(=O)N[C@@H](CC(=O)O)C(=O)N2 [Cyclic peptide 44] ({CH2CO}-V[hCys]RGDKF[hCys]AKKK-OH; linker 2-6 via X1; thioether N-8)	< 0.05	A (The residual rate of the cyclic peptide is 70% or more.)	
C[C@H](NC(=O)[C@@H]1CCSCC(=O)N[C@@H](CC(=O)O)C(=O)N[C@H]2CCSCC(=O)NCCCC[C@H](NC(=O)[C@H](CC(=O)O)NC(=O)CNC(=O)[C@H](CCCNC(=N)N)NC2=O)C(=O)N[C@@H](Cc2ccccc2)C(=O)N1)C(=O)N[C@@H](CCCCN)C(=O)N[C@@H](CCCCN)C(=O)N[C@@H](CCCCN)C(=O)O [Cyclic peptide 45] ({CH2CO}-D[hCys]RGDKF[hCys]AKKK-OH; linker 2-6 via X1; thioether N-8)	< 0.05	A (The residual rate of the cyclic peptide is 70% or more.)	
C[C@H](NC(=O)[C@@H]1CCSCC(=O)N[C@@H](CCC(=O)O)C(=O)N[C@H]2CCSCC(=O)NCCCC[C@H](NC(=O)[C@H](CC(=O)O)NC(=O)CNC(=O)[C@H](CCCNC(=N)N)NC2=O)C(=O)N[C@@H](Cc2ccccc2)C(=O)N1)C(=O)N[C@@H](CCCCN)C(=O)N[C@@H](CCCCN)C(=O)N[C@@H](CCCCN)C(=O)O [Cyclic peptide 46] ({CH2CO}-E[hCys]RGDKF[hCys]AKKK-OH; linker 2-6 via X1; thioether N-8)	< 0.05	A (The residual rate of the cyclic peptide is 70% or more.)	
C[C@H](NC(=O)[C@@H]1CCSCC(=O)N[C@@H](CCC(=O)O)C(=O)N[C@H]2CCSCC(=O)NCCC[C@H](NC(=O)[C@H](CC(=O)O)NC(=O)CNC(=O)[C@H](CCCNC(=N)N)NC2=O)C(=O)N[C@@H](Cc2ccccc2)C(=O)N1)C(=O)N[C@@H](CCCCN)C(=O)N[C@@H](CCCCN)C(=O)N[C@@H](CCCCN)C(=O)O [Cyclic peptide 47] ({CH2CO}-E[hCys]RGD[Orn]F[hCys]AKKK-OH; linker 2-6 via X1; thioether N-8)	< 0.05	A (The residual rate of the cyclic peptide is 70% or more.)	
C[C@H](N)C(=O)N[C@H]1CSSC[C@@H](C(=O)NCC(=O)N[C@@H](CCCCN)C(=O)N[C@@H](CCCCN)C(=O)N[C@@H](CCCCN)C(=O)O)NC(=O)[C@H](Cc2ccccc2)NC(=O)[C@@H]2CSSC[C@H](NC(=O)[C@H](CC(=O)O)NC1=O)C(=O)N[C@@H](CCCNC(=N)N)C(=O)NCC(=O)N[C@@H](CC(=O)O)C(=O)N2 [Cyclic peptide 49, ACDCRGDCFCGKKK, reference compound] (H-ACDCRGDCFCGKKK-OH; disulfide 2-10, 4-8)		D (The residual rate of the cyclic peptide is less than 30%.)	< 0.05
